According to patent US10508120B2, “TYK2 inhibitors and uses thereof” (Nimbus Lakshmi, Inc., priority 2017, dated 2019):

Legend:
[1] = molecular target: human TYK2 (JH2domain-pseudokinase) (Homo sapiens (Human), UniProt P29597); assay: TYK2 JH2 Domain Binding Assay (KINOMEscan)
How it was run: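 Competition binding of a DNA-tagged fusion of human TYK2 JH2 pseudokinase (G556–D888) with NFkB DNA-binding domain, from HEK293 extracts (<0.1 nM final), against immobilised ligand beads; 1 h shaking at room temperature, 0.9% DMSO. Bound kinase quantified by qPCR.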

Tyk2 kinase domain (DH1) = Tyk2 kinase domain (DH1) (Homo sapiens (Human), UniProt P29597); assay: Tyk2 Radioactive Kinase Assay; format: biochemical; settings: compound at 10 μM, ATP 10 μM; for inhibition at 10 µM: read-out: Tyk2 JH1% Inhibition @ 10 μM
How it was run: (§1)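 Single-point screen: 10 μM test compound, radioactive kinase read-out, percent inhibition reported for each kinase domain.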

JAK2 kinase domain (JH1) = JAK2 kinase domain (JH1) (Homo sapiens (Human), UniProt O60674); assay: JAK2 Radioactive Kinase Assay; format: biochemical; settings: compound at 10 μM, ATP 10 μM; for inhibition at 10 µM: read-out: JAK2 JH1% Inhibition @ 10 μM
How it was run: as §1

[2] = molecular target: Tyk2/JAK2 (heterodimeric complex) (Homo sapiens (Human), UniProt P29597); assay: IL-12 Induced pSTAT4 in Human PBMC; format: cell-based; settings: 1.7 ng/mL IL-12
Description: The IL-12 Induced pSTAT4 assay evaluates the inhibition of IL-12 induced STAT4 phophorylation mediated by Tyk2/JAK2 (heterodimeric complex).

[3] = molecular target: JAK2/JAK2 homdimeric complex (Homo sapiens (Human), UniProt O60674); assay: GM-CSF Induced pSTAT5 in Human PBMC; format: cell-based; settings: GM-CSF 5 ng/mL for 20 minutes, pSTAT5 by MSD, read-out: PBMC_GMCSF_pSTAT5 IC50
Chain of JAK2/JAK2 homdimeric complex (O60674 whole entry): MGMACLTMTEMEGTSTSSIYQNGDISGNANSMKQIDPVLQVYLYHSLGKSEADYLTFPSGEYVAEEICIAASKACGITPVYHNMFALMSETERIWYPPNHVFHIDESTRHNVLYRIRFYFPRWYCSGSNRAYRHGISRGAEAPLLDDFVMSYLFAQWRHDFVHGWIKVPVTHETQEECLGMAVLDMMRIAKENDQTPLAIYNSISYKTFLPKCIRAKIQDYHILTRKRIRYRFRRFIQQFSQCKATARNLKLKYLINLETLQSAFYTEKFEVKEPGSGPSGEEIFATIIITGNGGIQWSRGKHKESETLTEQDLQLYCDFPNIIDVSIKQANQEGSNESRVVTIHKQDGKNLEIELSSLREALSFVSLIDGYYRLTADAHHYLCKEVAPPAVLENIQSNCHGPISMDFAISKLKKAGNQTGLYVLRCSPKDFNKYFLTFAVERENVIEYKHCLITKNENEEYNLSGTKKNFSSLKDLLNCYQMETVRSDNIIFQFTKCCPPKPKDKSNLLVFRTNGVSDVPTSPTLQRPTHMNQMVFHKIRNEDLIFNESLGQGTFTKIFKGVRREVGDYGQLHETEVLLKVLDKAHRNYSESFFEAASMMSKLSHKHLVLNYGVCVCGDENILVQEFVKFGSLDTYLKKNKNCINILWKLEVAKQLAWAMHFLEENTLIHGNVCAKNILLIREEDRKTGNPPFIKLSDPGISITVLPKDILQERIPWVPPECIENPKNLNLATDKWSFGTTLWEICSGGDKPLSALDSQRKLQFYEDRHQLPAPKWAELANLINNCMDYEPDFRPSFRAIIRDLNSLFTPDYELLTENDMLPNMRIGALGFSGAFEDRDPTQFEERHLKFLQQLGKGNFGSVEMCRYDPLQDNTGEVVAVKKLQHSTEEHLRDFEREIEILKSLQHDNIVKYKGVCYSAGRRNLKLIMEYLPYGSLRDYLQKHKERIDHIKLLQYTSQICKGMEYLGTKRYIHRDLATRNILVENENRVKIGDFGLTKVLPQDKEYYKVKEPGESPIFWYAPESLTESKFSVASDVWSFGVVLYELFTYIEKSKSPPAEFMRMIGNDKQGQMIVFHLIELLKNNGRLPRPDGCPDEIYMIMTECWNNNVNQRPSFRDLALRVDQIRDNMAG
Chain of JAK2/JAK2 homdimeric complex (P32927 17-897 partner): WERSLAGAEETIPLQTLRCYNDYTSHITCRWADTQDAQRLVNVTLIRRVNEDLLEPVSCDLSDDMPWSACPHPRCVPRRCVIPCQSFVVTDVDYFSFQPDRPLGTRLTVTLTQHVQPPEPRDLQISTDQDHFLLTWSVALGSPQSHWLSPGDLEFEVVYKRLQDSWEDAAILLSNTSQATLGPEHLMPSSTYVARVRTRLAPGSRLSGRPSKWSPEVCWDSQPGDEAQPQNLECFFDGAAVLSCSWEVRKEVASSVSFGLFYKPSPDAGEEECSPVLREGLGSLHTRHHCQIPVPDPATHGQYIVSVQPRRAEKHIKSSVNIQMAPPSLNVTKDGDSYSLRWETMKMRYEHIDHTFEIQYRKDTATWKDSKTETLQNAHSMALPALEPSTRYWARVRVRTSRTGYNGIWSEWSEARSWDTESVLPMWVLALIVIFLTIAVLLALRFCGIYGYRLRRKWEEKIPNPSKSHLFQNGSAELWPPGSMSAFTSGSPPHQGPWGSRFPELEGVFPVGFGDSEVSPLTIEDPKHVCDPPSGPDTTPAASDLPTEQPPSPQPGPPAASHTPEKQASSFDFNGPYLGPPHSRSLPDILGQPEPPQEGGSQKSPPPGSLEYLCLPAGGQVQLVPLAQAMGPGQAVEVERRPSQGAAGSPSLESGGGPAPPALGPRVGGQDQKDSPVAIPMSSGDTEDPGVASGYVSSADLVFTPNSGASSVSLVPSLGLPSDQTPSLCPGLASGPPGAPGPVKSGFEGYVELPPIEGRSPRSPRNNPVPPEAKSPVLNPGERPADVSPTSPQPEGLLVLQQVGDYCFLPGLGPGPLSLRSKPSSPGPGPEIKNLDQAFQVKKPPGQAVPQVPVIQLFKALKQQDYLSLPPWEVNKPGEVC

Chain of Tyk2/JAK2 (heterodimeric complex) (P29597 whole entry, other chains not shown): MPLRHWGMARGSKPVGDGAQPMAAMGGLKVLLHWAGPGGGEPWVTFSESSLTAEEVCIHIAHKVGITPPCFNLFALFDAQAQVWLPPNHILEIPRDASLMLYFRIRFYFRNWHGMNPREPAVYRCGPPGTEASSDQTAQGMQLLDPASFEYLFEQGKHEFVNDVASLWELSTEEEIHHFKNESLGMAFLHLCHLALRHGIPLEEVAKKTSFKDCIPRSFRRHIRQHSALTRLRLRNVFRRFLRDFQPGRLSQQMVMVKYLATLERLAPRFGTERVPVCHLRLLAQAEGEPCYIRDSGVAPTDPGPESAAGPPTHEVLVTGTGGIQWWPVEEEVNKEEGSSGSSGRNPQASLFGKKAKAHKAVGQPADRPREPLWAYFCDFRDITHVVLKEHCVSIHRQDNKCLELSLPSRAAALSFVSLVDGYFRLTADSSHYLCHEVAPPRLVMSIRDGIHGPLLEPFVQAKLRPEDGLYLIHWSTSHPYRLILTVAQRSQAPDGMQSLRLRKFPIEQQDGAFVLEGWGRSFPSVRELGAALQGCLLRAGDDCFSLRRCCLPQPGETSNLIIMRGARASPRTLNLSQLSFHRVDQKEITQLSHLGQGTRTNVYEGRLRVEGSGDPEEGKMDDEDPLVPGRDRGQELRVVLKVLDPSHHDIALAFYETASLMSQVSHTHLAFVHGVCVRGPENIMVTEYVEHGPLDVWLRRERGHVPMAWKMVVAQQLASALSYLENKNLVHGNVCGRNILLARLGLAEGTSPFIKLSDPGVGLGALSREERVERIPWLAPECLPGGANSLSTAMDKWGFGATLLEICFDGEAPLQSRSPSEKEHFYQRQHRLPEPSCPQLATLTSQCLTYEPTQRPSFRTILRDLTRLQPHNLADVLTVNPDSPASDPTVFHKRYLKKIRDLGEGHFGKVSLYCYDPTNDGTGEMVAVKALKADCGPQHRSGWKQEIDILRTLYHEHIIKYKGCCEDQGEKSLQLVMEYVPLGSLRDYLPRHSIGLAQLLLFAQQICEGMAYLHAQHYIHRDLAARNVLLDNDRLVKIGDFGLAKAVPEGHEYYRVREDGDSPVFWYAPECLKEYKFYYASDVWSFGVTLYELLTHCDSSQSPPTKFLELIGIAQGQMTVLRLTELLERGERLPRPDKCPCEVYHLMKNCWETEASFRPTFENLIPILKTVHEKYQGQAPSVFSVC
Chain of human TYK2 (JH2domain-pseudokinase) (P29597 556-888): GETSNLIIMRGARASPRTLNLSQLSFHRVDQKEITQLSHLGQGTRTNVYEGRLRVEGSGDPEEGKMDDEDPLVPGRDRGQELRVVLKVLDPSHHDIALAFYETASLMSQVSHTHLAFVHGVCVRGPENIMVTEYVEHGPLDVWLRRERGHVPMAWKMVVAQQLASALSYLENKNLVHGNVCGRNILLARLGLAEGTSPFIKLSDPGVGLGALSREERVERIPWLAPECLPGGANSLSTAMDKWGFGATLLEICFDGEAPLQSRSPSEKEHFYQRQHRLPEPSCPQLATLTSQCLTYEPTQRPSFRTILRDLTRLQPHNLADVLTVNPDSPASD
Chain of Tyk2 kinase domain (DH1) (P29597 897-1176): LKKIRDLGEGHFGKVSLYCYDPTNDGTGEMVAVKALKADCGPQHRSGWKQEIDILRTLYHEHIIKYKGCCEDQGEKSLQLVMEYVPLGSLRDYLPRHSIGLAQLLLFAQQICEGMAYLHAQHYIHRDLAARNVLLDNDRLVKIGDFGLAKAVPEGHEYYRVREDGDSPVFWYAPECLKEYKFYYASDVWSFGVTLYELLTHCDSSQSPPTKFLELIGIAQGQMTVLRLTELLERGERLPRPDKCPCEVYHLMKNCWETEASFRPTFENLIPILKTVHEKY
Chain of JAK2 kinase domain (JH1) (O60674 849-1124): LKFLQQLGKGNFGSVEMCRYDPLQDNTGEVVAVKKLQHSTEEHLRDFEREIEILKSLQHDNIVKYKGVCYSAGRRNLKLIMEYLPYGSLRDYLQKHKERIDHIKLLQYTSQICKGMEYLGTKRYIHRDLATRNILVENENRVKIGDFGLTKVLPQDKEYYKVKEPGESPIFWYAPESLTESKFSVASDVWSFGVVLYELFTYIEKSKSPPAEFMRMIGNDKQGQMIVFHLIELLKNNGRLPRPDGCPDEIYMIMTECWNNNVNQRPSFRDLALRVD

SMILES | Kd [1] [nM] | inhibition at 10 µM (Tyk2 kinase domain (DH1)) [%] | inhibition at 10 µM (JAK2 kinase domain (JH1)) [%] | IC50 [2] [nM] | IC50 [3] [µM] | Tyk2 JH1% Inhibition @ 10 μM (Tyk2 kinase domain (DH1)) | JAK2 JH1% Inhibition @ 10 μM (JAK2 kinase domain (JH1))
CNc1cc(Nc2cccn([C@H]3CC[C@H](OC)CC3)c2=O)nc2c(C(=O)NCC3(CO)CC3)cnn12 [I-545] | < 0.2 | < 50 | < 50 | 100 to 500 | > 2.5 |  | 
CNc1cc(Nc2cccnc2OC2CC2)nc2c(C(=O)N[C@H]3COC[C@H]3O)cnn12 [I-547] | < 0.2 | < 50 | < 50 | 100 to 500 | > 50 |  | 
CNc1cc(Nc2cccn(C3CC4(COC4)C3)c2=O)nc2c(C(=O)N[C@@H]3C[C@@H]3F)cnn12 [I-551, N-((1R,2S)-2-fluorocyclopropyl)-7-(methylamino)-5-((2-oxo-1-(2-oxaspiro[3.3]heptan-6-yl)-1,2-dihydropyridin-3-yl)amino)pyrazolo[1,5-a]pyrimidine-3-carboxamide] | < 0.2 | < 50 | < 50 | < 100 | > 2.5 |  | 
CNc1cc(Nc2cc(F)cn([C@H]3CCCOC3)c2=O)nc2c(C(=O)N[C@H]3C[C@H]3F)cnn12 [I-559] | < 0.2 | < 50 | < 50 | < 100 | > 50 |  | 
CNc1cc(Nc2cccn([C@H]3CC[C@H](OC)CC3)c2=O)nc2c(C(=O)N[C@@H]3CC[C@@H]3O)cnn12 [I-560] | < 0.2 | < 50 | < 50 | < 100 | > 2.5 |  | 
CNc1cc(Nc2cccc([C@@H]3CCCOC3)n2)nc2c(C(=O)N[C@H]3C[C@H]3F)cnn12 [I-562] | < 0.2 | < 50 | 50 to 70 | < 100 | > 50 |  | 
CNc1cc(Nc2cccc([C@H]3CCCOC3)n2)nc2c(C(=O)N[C@H]3C[C@H]3F)cnn12 [I-563] | < 0.2 | < 50 | < 50 | < 100 | > 50 |  | 
CNc1cc(Nc2cccn(C3CCN(CCF)CC3)c2=O)nc2c(C(=O)N[C@H]3C[C@H]3F)cnn12 [I-570] | < 0.2 | < 50 | < 50 | < 100 | > 50 |  | 
CNc1cc(-c2cn(C(C)C)c3ncccc23)nc2c(C(=O)N[C@@H]3CC[C@@H]3O)cnn12 [I-578] | < 0.2 | < 50 | < 50 | < 100 | > 50 |  | 
CNc1cc(-c2cn(CCN3CCCCC3)c3ncccc23)nc2c(C(=O)N[C@H]3C[C@H]3F)cnn12 [I-585] | < 0.2 | < 50 | < 50 | < 100 | > 12.5 |  | 
CNc1cc(-c2cn(C(C)C)c3ncccc23)nc2c(C(=O)N[C@H]3CC[C@@H]3O)cnn12 [I-586, N-((1R,2R)-2-hydroycyclobutyl)-5-(1-isopropyl-1H-pyrrolo[2,3-b]pyridin-3-yl)-7-(methylamino)pyrazolo[1,5-a]pyrimidine-3-carboxamide] | < 0.2 | < 50 | < 50 | < 100 | > 50 |  | 
CNc1cc(Nc2cccc(N3CCOCC3)n2)nc2c(C(=O)N[C@H]3C[C@H]3F)cnn12 [I-590] | < 0.2 | < 50 | 50 to 70 | < 100 | > 12.5 |  | 
CNc1cc(Nc2cccc3ocnc23)nc2c(C(=O)NC3CC3)cnn12 [I-591] | < 0.2 | < 50 | < 50 | < 100 | > 12.5 |  | 
CNc1cc(Nc2cccc3ocnc23)nc2c(C(=O)N[C@H]3C[C@H]3F)cnn12 [I-592] | < 0.2 | < 50 | < 50 | < 100 | > 12.5 |  | 
CNc1cc(Nc2cccc([C@@H]3CCCOC3)n2)nc2c(C(=O)N[C@H]3CC[C@@H]3O)cnn12 [I-603] | < 0.2 | 50 to 70 | 50 to 70 | < 100 | > 2.5 |  | 
CNc1cc(Nc2cccn(-c3cn(C)nc3F)c2=O)nc2c(C(=O)NC3CC3)cnn12 [I-606] | < 0.2 | < 50 | < 50 | 100 to 500 | > 12.5 |  | 
CNc1cc(Nc2cccn(-c3cn(C)nc3F)c2=O)nc2c(C(=O)N[C@H]3C[C@H]3F)cnn12 [I-607] | < 0.2 | < 50 | < 50 | < 100 | > 50 |  | 
CNc1cc(-c2cn(C(C)C)c3ncccc23)nc2c(C(=O)N[C@H]3C[C@H](O)C3)cnn12 [I-630, N-((1r, 3r)-3-hydroxycyclobutyl)-5-(1-isopropyl-1H-pyrrolo[2,3-b]pyridin-3-yl)-7-(methylamino)pyrazolo[1,5-a]pyrimidine-3-carboxamide] | < 0.2 | < 50 | < 50 | < 100 | > 2.5 |  | 
CNc1cc(Nc2cccn([C@H]3CC[C@H](OC)CC3)c2=O)nc2c(C(=O)N[C@@H]3CC[C@H]3O)cnn12 [I-635] | < 0.2 | < 50 | < 50 | < 100 | > 50 |  | 
CNc1cc(-c2cn(C(C)C)c3ncccc23)nc2c(C(=O)N[C@H]3CC[C@H]3O)cnn12 [I-637] | < 0.2 | < 50 | < 50 | < 100 | > 12.5 |  | 
CNc1cc(-c2cn(C(C)C)c3ncccc23)nc2c(C(=O)N[C@H]3CC[C@@H]3O)cnn12 [I-639] | < 0.2 |  |  | < 100 | > 12.5 | A (percent inhibition at 10 μM lower than 50) | A (percent inhibition at 10 μM lower than 50)
CNc1cc(-c2cn(C(C)C)c3ncccc23)nc2c(C(=O)N[C@@H]3CC[C@H]3O)cnn12 [I-640] | < 0.2 | < 50 | < 50 | < 100 | > 12.5 |  | 

More lines, main results first:

Kd [1] [nM] | inhibition at 10 µM (Tyk2 kinase domain (DH1)) [%] | inhibition at 10 µM (JAK2 kinase domain (JH1)) [%] | IC50 [2] [nM] | IC50 [3] [µM] | SMILES | Tyk2 JH1% Inhibition @ 10 μM (Tyk2 kinase domain (DH1)) | JAK2 JH1% Inhibition @ 10 μM (JAK2 kinase domain (JH1))
< 0.2 | < 50 | < 50 | < 100 | > 12.5 | CNc1cc(Nc2cccc3ocnc23)nc2c(C(=O)N[C@@H]3CC[C@@H]3O)cnn12 [I-661] |  | 
< 0.2 | < 50 | 50 to 70 | < 100 | > 2.5 | CNc1cc(Nc2cccc([C@@H]3CCCOC3)n2)nc2c(C(=O)N[C@@H]3CC[C@H]3O)cnn12 [I-665] |  | 
< 0.2 | < 50 | < 50 | < 100 | > 12.5 | CNc1cc(Nc2cccc([C@H]3CCCOC3)n2)nc2c(C(=O)N[C@@H]3CC[C@H]3O)cnn12 [I-667] |  | 
< 0.2 | < 50 | < 50 | < 100 | > 50 | CNc1cc(Nc2cccn([C@H]3CC[C@](C)(OC)CC3)c2=O)nc2c(C(=O)N[C@@H]3CC[C@@H]3O)cnn12 [I-670, N-(2-hydroxycyclobutyl)-5-((1-((1R,4S)-4-methoxy-4-methylcyclohexyl)-2-oxo-1,2-dihydropyridin-3-yl)amino)-7-(methylamino)pyrazolo[1,5-a]pyrimidine-3-carboxamide] |  | 
< 0.2 | < 50 | < 50 | < 100 | > 50 | CNc1cc(Nc2cccn(-c3ncc(OC)cc3F)c2=O)nc2c(C(=O)N[C@H]3C[C@H]3F)cnn12 [I-673] |  | 
< 0.2 | < 50 | < 50 | < 100 | > 2.5 | CNc1cc(Nc2cccn(-c3ncc(C)s3)c2=O)nc2c(C(=O)N[C@@H]3CC[C@@H]3O)cnn12 [I-677] |  | 
< 0.2 | < 50 | < 50 | < 100 | > 12.5 | CNc1cc(Nc2cccn(-c3ccccn3)c2=O)nc2c(C(=O)NC3CC3)cnn12 [I-680] |  | 
< 0.2 | < 50 | < 50 | < 100 | > 12.5 | CNc1cc(Nc2cccn(-c3ccccn3)c2=O)nc2c(C(=O)N[C@H]3C[C@H]3F)cnn12 [I-681] |  | 
< 0.2 | < 50 | < 50 | < 100 | > 50 | CNc1cc(Nc2cc(Cl)cn(C3CCCOC3)c2=O)nc2c(C(=O)N[C@H]3C[C@H]3F)cnn12 (stereo partly drawn) [I-693] |  | 
< 0.2 | < 50 | < 50 | < 100 | > 50 | CNc1cc(Nc2cc(Cl)cn(C3CCCOC3)c2=O)nc2c(C(=O)NCC(C)(C)CO)cnn12 (stereo not drawn) [I-694] |  | 
< 0.2 | < 50 | < 50 | < 100 | > 50 | CNc1cc(Nc2cccc(N3CCC34COC4)n2)nc2c(C(=O)N[C@H]3C[C@H]3F)cnn12 [I-709] |  | 
